Literature values, collected in patent US7300923B2, “Partial and full agonists of A1 adenosine receptors” (CV Therapeutics, Inc., priority 2004, dated 2007).
Blank lines part the entries; values can stand above or below the compound they belong to.

Experiments:
A1-adenosine receptor = target: T1, A1-adenosine receptor (Homo sapiens, UniProt P30542)
T1 sequence (P30542 1-326): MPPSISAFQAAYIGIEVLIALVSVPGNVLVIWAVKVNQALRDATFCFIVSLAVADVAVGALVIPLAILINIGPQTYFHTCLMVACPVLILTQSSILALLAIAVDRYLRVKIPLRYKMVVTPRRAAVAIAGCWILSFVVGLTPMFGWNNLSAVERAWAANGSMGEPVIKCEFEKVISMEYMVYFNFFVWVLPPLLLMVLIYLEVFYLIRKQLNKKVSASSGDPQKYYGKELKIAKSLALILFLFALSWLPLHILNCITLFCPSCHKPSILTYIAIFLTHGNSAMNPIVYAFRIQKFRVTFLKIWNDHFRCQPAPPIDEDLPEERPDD

seizures induced by DMCM = conditions: seizures induced by the inverse benzodiazepine agonist DMCM

Structure (SMILES): OC1CCCC1Nc1ncnc2c1ncn2[C@@H]1O[C@H](CSc2ccccc2F)[C@@H](O)[C@H]1O (mixture of isomers) [(4S,5S,2R,3R)-5-[(2-fluorophenylthio)methyl]-2-{6-[(2-hydroxy-cyclopentyl)amino]-purin-9-yl}oxolane-3,4-diol]
- A1-adenosine receptor agonist profile (A1-adenosine receptor): highly selective partial A1-adenosine receptor agonist

Structure (SMILES): Cc1ccccc1CNc1ncnc2c1ncn2[C@@H]1O[C@H](CO)[C@@H](O)[C@H]1O [metrifudil]
- anticonvulsant activity (seizures induced by DMCM): potent anticonvulsant

- half-life: less than 10 sec
Structure (SMILES): Nc1ncnc2c1ncn2[C@@H]1O[C@H](CO)[C@@H](O)[C@H]1O [adenosine, Adenosine]
